From patent US9504671B2, “Pharmaceutical compositions of spiro-oxindole compound for topical administration and their use as therapeutic agents” (Xenon Pharmaceuticals Inc., priority 2010, dated 2016)

What was measured:
[1] = test system: STZ-induced neuropathic pain model; assay: STZ model of diabetic neuropathy, von Frey; assay type: in vivo, male Sprague-Dawley rats; conditions: 50 mg on left foot, 30 minutes post-dosing
Text: This study evaluates the efficacy of a pharmaceutical composition of the invention in the STZ-induced neuropathic pain model in male Sprague-Dawley rats, following acute dosing, as compared with a 5% (w/v) topical Lidocaine (Xylocaine®) and a 1.16% (w/v) topical Diclofenac (Voltaren®). A rodent model of painful peripheral diabetic neuropathy (PDN) that mimics human condition was created by inducing a diabetic state in the rat through the ablation of the insulin producing pancreatic beta cells. A single streptozotocin (STZ) injection destroys beta cells in rats and produces a diabetic state that over time progresses to painful Peripheral Diabetic Neuropathy (PDN).
Streptozotocin (STZ) was dissolved in citrate buffer (20 mM, pH 4.5) and administered at a dose of 60 mg/Kg, intraperitoneal, to induce pancreatic beta-cell death. Blood glucose level was measured once a week following injection, using the AccuSoft Blood Glucose Monitoring System. […] Hyperalgesia and allodynia, which are signs of diabetic neuropathic pain, were monitored using the von Frey test as described below. Von Frey measurements were recorded from both left and right paws. Only those with significant hyperalgesia as determined by reduced threshold, measured in grams, of paw withdrawal to the von Frey filament were enrolled in the study. […] During this time their health status was closely monitored.
The animals were randomly divided into 4 test groups (n=7 animals/group) including a vehicle control, a 5% (w/v) Lidocaine (Xylocaine®), a 1.16% (w/v) Diclofenac (Voltaren®), and a pharmaceutical composition with 4% (w/w) COMPOUND A. After baseline measurement, 50 mg of the test composition was applied on the entire left foot. […] The paw withdrawal thresholds of animals from mechanical tactile stimuli were measured using the Electrovonfrey anesthesiometer (Model 2290, IITC Life Science, Woodland Hills, Calif.). […] The force (g) required to elicit a crisp withdrawal response was recorded before dosing as a baseline measurement, and at 30 minutes post-dosing. […]

[2] = test system: CCI-induced neuropathic pain model; assay: time course of efficacy in neuropathic pain model, Chronic Constriction Injury, von Frey; assay type: in vivo, Sprague-Dawley rats
Procedure: Neuropathic pain is characterized by spontaneous pain and stimulus-evoked allodynia and hyperalgesia. Pharmaceutical compositions of the invention were evaluated in Chronic Constriction Injury model using Sprague-Dawley rats as described below.
An approximately 3 cm incision was made through the skin and the fascia at the mid thigh level of a rat's left hind leg using a no. 10 scalpel blade. The left sciatic nerve was exposed via blunt dissection through the biceps femoris with care to minimize haemorrhagia. Four loose ligatures were tied along the sciatic nerve using four chromic gut sutures at intervals of 1 mm to 2 mm apart. The tension of the loose ligatures was tight enough to induce slight constriction of the sciatic nerve when viewed under a dissection microscope at a magnification of 4 fold. As sham controls, the right sciatic nerve was exposed and manipulated in the same manner as described above, except sutures were not tied onto the nerve. Antibacterial ointment was applied directly into the wound, and the muscle was closed using sterilized sutures. Betadine® was applied onto the muscle and its surroundings, followed by skin closure with surgical clips.
A painful neuropathy was allowed to develop for at least 14 days in the ipsilateral leg as determined by lower paw withdrawal thresholds to a mechanical stimulus. Only those with significant hyperalgesia, as determined by reduced threshold of paw withdrawal to the von Frey filament, measured in grams, were enrolled in the study.
The response thresholds of animals to tactile stimuli were measured using the Model 2290 Electrovonfrey anesthesiometer (IITC Life Science, Woodland Hills, Calif.). Animals were placed in an elevated Plexiglass enclosure set on a mire mesh surface. After 15 minutes of accommodation, a von Frey hair was applied perpendicularly to the plantar surface of the ipsilateral hind paws of the animals with sufficient force, measured in grams, to elicit a crisp response of the paw. The response indicated a withdrawal from the painful stimulus and constituted the efficacy endpoint. The force (in grams) required to elicit a crisp withdrawal response was recorded before dosing as a baseline measurement, and at multiple time points post-dosing.
Three days prior to baseline measurement, animals were anaesthetized under isoflurane and the whole of the ipsilateral hind legs, including the upper sciatic notch thigh area, ankle and foot, was shaved. The animals were then randomly assigned to one of 4 different test groups including a vehicle control group, a 5% (w/v) Lidocaine (Xylocaine®), and 2 pharmaceutical compositions of the invention comprising COMPOUND A at 4% (w/w) containing either 5% or 10% Transcutol® P. After baseline measurement, 100 mg of the test composition was applied on the entire shaved area. The animals were then placed in plastic tubes for at least 15 minutes, to prevent early removal/ingestion of drug. Subsequently, animals were placed in the Plexiglas enclosure 15 minutes before von Frey measurement at the respective time points. Von Frey withdrawal thresholds were measured as the mean of several independent determinations made within 1-2 minutes of each other on the affected paw of each animal at 0.5, 1 and 2 hours post dosing.

| SMILES | paw withdrawal threshold of treated paw, CFB ([1]; 1.16% (w/v) topical) | paw withdrawal threshold, percent mean change from baseline (CFB) ([2]; 5% (w/v) topical, 100 mg applied, 0.5 hours post-dosing) | paw withdrawal threshold, CFB ([2]; 5% (w/v) topical, time points later than 0.5 hours post-dosing, p>0.05) | duration of analgesic effects post-dosing ([2]; 5% topical) | paw withdrawal threshold of treated paw, percent mean change from baseline (CFB) ([1]; 5% (w/v) topical) [%] |
| --- | --- | --- | --- | --- | --- |
| O=C(O)Cc1ccccc1Nc1c(Cl)cccc1Cl [Diclofenac] | No significant CFB |  |  |  |  |
| CCN(CC)CC(=O)Nc1c(C)cccc1C [Lidocaine, reference compound] |  | +23.1% | No significant changes | up to 0.5 hours | 25.9 |
